Source: US4185119A, “Antiallergic methods” (priority 1977, dated 1980)
Where a name gives a salt, the structure may show the parent alone.

Assays:
[1] = system: P.C.A. reaction in Donryu strain rats; test: Inhibition of P.C.A. reaction in Donryu strain rats, rat hyperimmune antiserum against egg albumin; assay type: in vivo; conditions: Donryu rat (Table 2-I)
Protocol: (§1) (b) Rat hyperimmune antiserum against egg albumin
(§2) A solution of egg albumin (20 mg.) in normal saline (1 ml.) was mixed with complete adjuvant (1 ml.) (made by Difco Laboratories) to given an emulsion. The emulsion was subcutaneously given in a single dose of 1 ml. divided equally (0.25 ml.) to the four pads of male S.D. strain rats aged 6 weeks, each weighing about 200 g. (The first immunization).
(§3) One week after the administration, an emulsion which was prepared by mixing a solution of egg albumin (10 mg.) in normal saline (1 ml.) with complete adjuvant (1 ml.) was further given subcutaneously (at 3 places) and intramuscularly (at 1 place) in a single dose of 1 ml. divided equally (0.25 ml.) to thigh of the same rats. (The second immunization).
(§4) Three weeks after the second administration, a solution of egg albumin (1 mg.) in normal saline (1 ml.) was further given intracutaneously in a single dose of 0.3 ml. divided equally (0.1 ml.) to 3 places of the same rats. (The third immunization).
(§5) One week after the third administration, blood samples were collected from rats and treated in substantially the same manner as described in the above item (a). The antisera thus obtained were stored at -80° C. prior to use.
(§6) Further, an inhibition test on P.C.A. reaction using the rat hyperimmuneantiserum against egg albumin was carried out in substantially the same manner as described in the above, excepting that the intravenous administration to bring about P.C.A. was carried out at 5.5 hours after the administration of the serum and antiserum. And inhibitory effect on the P.C.A. reaction was also calculated in substantially the same manner as described in the above.
(§7) (b) Inhibitory effect on P.C.A. reaction in Donryu strain rat
(§8) The following tests were carried out in substantially the same manner as described in the above item (2)-(a).
(§9) (i) Test compound: N:methyllaurotetanine hydrochloride
(§10) Test animal: Male Donryu strain rats aged 8 weeks, weighing about 130 g.
(§11) Challenge: A normal saline (0.3 ml.) containing egg albumin (4.5 mg.) and Evans blue (1.5 mg.).
(§12) (ii) Test commpound: glaucine or boldine
(§13) Test animal: Male Donryu strain rats aged 8 weeks, weighing 140-150 g.
(§14) Challenge: the same as the above item (b)-(i).

[2] = system: P.C.A. reaction in Donryu strain rats; test: Inhibition of P.C.A. reaction in Donryu strain rats, rat reaginic antiserum against egg albumin; assay type: in vivo; conditions: Donryu rat (Table 2-I)
Protocol: (§15) (a) Rat reaginic antiserum against egg albumin
(§16) A solution of egg albumin (2 mg) in B. pertussis-diphtheria-tetanus mixed vaccine (1 ml.) (made by Takeda Chemical Industries Ltd.) was mixed with an equal volume of incomplete adjuvant (made by Difco Laboratories) to give an emulsion. The emulsion was given subcutaneously in a single dose of 1 ml. divided equally (0.25 ml.) to the four foot pads of male S.D. (Sprague-Dawley) strain rats aged 8 weeks, each weighing about 300 g.
(§17) Five days after the administration, a solution of egg albumin (0.5 mg.) in B. pertussis-diphtheria-tetanus mixed vaccine (0.5 ml.) was further given intramuscularly in a single dose of 0.5 ml. divided equally (0.25 ml.) to 2 places of thigh of the same rats.
(§18) Three days after the second administration, blood samples were collected from femoral artery of the rats and allowed to stand at ambient temperature for 5 hours. The separated supernatant was centrifuged at 4° C. (10,000 r.p.m.× 1 hour). The antisera thus obtained were stored at -80° C. prior to use.
as §7, §8, §9, §10, §11, §12, §13, §14

[3] = system: P.C.A. reaction in S.D. strain rats; test: Inhibition test of P.C.A. (Passive Cutaneous Anaphylaxis) reaction in S.D. strain rats, rat reaginic antiserum against egg albumin; assay type: in vivo
Protocol: as §15, §16, §17, §18
(§19) (2) Inhibition test of P.C.A. (Passive Cutaneous Anaphylaxis) reaction
(§20) (a) Inhibitory effect on P.C.A. reaction in S.D. strain rats
(§21) Fifteen male S.D. strain rats aged 8 weeks, each weighing about 270 g were divided equally into 3 groups.
(§22) A rat reaginic antiserum (0.07 ml.) as prepared by the above (1)-(a) was given intracutaneously to the depilated back of each rat of Group I and Group II. On the other hand, a rat normal serum (0.07 ml.) was given intracutaneously to the depilated back of each rat of Group III, respectively.
(§23) Thirty hours after the administration, a normal saline (0.5 ml.) containing egg albumin (7.5 mg.) and Evans blue (2.5 mg.) was intravenously given to each rat of Groups I-III in order to bring about P.C.A., respectively.
(§24) Beforehand, 3 hours, 1 hour and […] before the intravenous administration to bring about P.C.A., a normal saline (1 ml.) containing the prescribed amount of N-methyllaurotetanine hydrochloride and carboxymethylcellulose (0.5 %) was given orally, intraperitoneally or intravenously to each rat of Group I and a normal saline (1 ml.) containing only carboxymethylcellulose (0.5% was also given orally, intraperitoneally or intravenously to each rat of Group II.
(§25) Thirty minutes after challenge with antigen, the animals were sacrificed and then skinned. To each of the sensitized spots punched, was added a mixture (7 ml.) of acetone and 2% aqueous sodium alkylbenzenesulfonate solution (4:1) and then the mixture was homogenized. The homogenate was shaken at ambient temperature for 2 hours and filtered. Optical density at 620 nm of the filtrate was determined and from the value of the optical density, inhibitory effect of P.C.A. reaction was calculated by using the following equation. [formula] A: Optical Density Value of Group II B: Optical Density Value of Group I
(§26) C: Optical Density Value of Group III

Acute toxicity in mice = conditions: mouse, in vivo, ip; intraperitoneal, male I.C.R. mice, survivals at one week
Protocol: Test: Acute Toxicity in Mice
A normal saline containing each of the test compound mentioned below and 0.5% carboxymethylcellulose was given intraperitoneally to male I.C.R. (Institute of Cancer Research) strain mice aged 5 weeks, weighing 33-35 g. LD50 values were calculated from the survivals of mice at one week after the administration of the test compound.

[4] = system: P.C.A. reaction in S.D. strain rats; test: Inhibition test of P.C.A. reaction in S.D. strain rats, rat hyperimmune antiserum against egg albumin; assay type: in vivo
Protocol: as §1, §2, §3, §4, §5, §19, §20, §21, §22, §23, §24, §25, §26, §6

COc1cc2c(cc1O)CC1c3c(cc(OC)c(OC)c3-2)CCN1C (centres unmarked) [N-Methyllaurotetanine hydrochloride]
Inhibitory effect on P.C.A. reaction ([1]; intraperitoneal, 4 mg/kg): 10% | Inhibitory effect on P.C.A. reaction ([1]; intraperitoneal, 13 mg/kg): 55% | Inhibitory effect on P.C.A. reaction ([1]; intraperitoneal, 40 mg/kg): 50% | Inhibitory effect on P.C.A. reaction ([1]; intravenous, 6.7 mg/kg): 50% | Inhibitory effect on P.C.A. reaction ([1]; intravenous, 20 mg/kg): 80% | Inhibitory effect on P.C.A. reaction ([1]; oral, 20 mg/kg): 30% | Inhibitory effect on P.C.A. reaction ([1]; oral, 66 mg/kg): 40% | Inhibitory effect on P.C.A. reaction ([1]; oral, 200 mg/kg): 65% | Inhibitory effect on P.C.A. reaction ([2]; intraperitoneal, 4 mg/kg): 30% | Inhibitory effect on P.C.A. reaction ([2]; intraperitoneal, 13 mg/kg): 60% | Inhibitory effect on P.C.A. reaction ([2]; intraperitoneal, 40 mg/kg): 70% | Inhibitory effect on P.C.A. reaction ([2]; intravenous, 6.7 mg/kg): 70% | Inhibitory effect on P.C.A. reaction ([2]; intravenous, 20 mg/kg): 100% | Inhibitory effect on P.C.A. reaction ([2]; oral, 20 mg/kg): 40% | Inhibitory effect on P.C.A. reaction ([2]; oral, 66 mg/kg): 70% | Inhibitory effect on P.C.A. reaction ([2]; oral, 200 mg/kg): 90% | Inhibitory effect on P.C.A. reaction ([3]; intraperitoneal, 4 mg/kg): 6% | Inhibitory effect on P.C.A. reaction ([3]; intraperitoneal, 13 mg/kg): 80% | Inhibitory effect on P.C.A. reaction ([3]; intraperitoneal, 40 mg/kg): 85% | ED50 ([3]; intravenous): 2.5 mg/kg | Inhibitory effect on P.C.A. reaction ([3]; intravenous, 1 mg/kg): 24% | Inhibitory effect on P.C.A. reaction ([3]; intravenous, 3 mg/kg): 57% | Inhibitory effect on P.C.A. reaction ([3]; intravenous, 9 mg/kg): 85% | ED50 ([3]; ip, intraperitoneal): 4.8 mg/kg | ED50 ([3]; oral): 100 mg/kg | Inhibitory effect on P.C.A. reaction ([3]; oral, 20 mg/kg): 16% | Inhibitory effect on P.C.A. reaction ([3]; oral, 66 mg/kg): 35% | Inhibitory effect on P.C.A. reaction ([3]; oral, 200 mg/kg): 85% | LD50 at 168 h (Acute toxicity in mice): 91.7 mg/kg | Inhibitory effect on P.C.A. reaction ([4]; intraperitoneal, 4 mg/kg): 20% | Inhibitory effect on P.C.A. reaction ([4]; intraperitoneal, 13 mg/kg): 60% | Inhibitory effect on P.C.A. reaction ([4]; intraperitoneal, 40 mg/kg): 72% | ED50 ([4]; intravenous): 4 mg/kg | Inhibitory effect on P.C.A. reaction ([4]; intravenous, 1 mg/kg): 23% | Inhibitory effect on P.C.A. reaction ([4]; intravenous, 3 mg/kg): 46% | Inhibitory effect on P.C.A. reaction ([4]; intravenous, 9 mg/kg): 65% | ED50 ([4]; ip, intraperitoneal): 11 mg/kg | ED50 ([4]; oral): 110 mg/kg | Inhibitory effect on P.C.A. reaction ([4]; oral, 20 mg/kg): 42% | Inhibitory effect on P.C.A. reaction ([4]; oral, 66 mg/kg): 33% | Inhibitory effect on P.C.A. reaction ([4]; oral, 200 mg/kg): 81%
